# According to ChEMBL document CHEMBL4402585 (J Med Chem, 2020):
# Activity calls are given as the source filed them. No cut-off for these calls is given here.
# Key:
# MV4-11 [1] = test: Antiproliferative activity against human MV4-11 cells assessed as reduction in cell viability measured after 72 hrs by Celltitre-glo luminescence assay; assay type: functional, cell-based; settings: MV4-11, 72 h
# Cytochrome P450 3A4 = Cytochrome P450 3A4 (Homo sapiens, UniProt P08684); test: Inhibition of CYP3A4 in human liver microsomes using testosterone as substrate preincubated for 10 mins followed by NADPH addition and measured after 15 mins by LC-MS/MS analysis; assay type: ADME
# Cytochrome P450 3A4, sequence (P08684 whole entry): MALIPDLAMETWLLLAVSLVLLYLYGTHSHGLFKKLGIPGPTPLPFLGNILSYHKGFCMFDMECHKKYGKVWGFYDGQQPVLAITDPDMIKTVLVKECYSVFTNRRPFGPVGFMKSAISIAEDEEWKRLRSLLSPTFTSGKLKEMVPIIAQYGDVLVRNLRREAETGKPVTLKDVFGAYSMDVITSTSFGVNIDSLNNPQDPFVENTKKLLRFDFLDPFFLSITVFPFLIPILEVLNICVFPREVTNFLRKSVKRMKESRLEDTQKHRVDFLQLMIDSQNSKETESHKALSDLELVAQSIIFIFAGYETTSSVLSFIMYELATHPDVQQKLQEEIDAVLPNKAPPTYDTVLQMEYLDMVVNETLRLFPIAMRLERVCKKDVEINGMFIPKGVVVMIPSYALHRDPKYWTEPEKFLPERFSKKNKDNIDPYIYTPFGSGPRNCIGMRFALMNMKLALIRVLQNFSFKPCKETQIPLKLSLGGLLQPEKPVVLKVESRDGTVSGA
# [2] = Cmax in Sprague-Dawley rat at 3 mg/kg, po by LC-MS/MS analysis; assay type: ADME, organism-based; parameters: dose 3 mg/kg, route oral; settings: in vivo
# [3] = Clearance in human liver microsomes at 0.1 uM preincubated for 10 mins followed by NADPH addition and measured up to 60 mins by LC-MS/MS analysis; assay type: ADME, Microsome; settings: 1 h
# Cytochrome P450 1A2 = target: T1, Cytochrome P450 1A2 (Homo sapiens, UniProt P05177); test: Inhibition of CYP1A2 in human liver microsomes using phenacetin as substrate preincubated for 10 mins followed by NADPH addition and measured after 15 mins by LC-MS/MS analysis; assay type: ADME
# T1 sequence (P05177 whole entry): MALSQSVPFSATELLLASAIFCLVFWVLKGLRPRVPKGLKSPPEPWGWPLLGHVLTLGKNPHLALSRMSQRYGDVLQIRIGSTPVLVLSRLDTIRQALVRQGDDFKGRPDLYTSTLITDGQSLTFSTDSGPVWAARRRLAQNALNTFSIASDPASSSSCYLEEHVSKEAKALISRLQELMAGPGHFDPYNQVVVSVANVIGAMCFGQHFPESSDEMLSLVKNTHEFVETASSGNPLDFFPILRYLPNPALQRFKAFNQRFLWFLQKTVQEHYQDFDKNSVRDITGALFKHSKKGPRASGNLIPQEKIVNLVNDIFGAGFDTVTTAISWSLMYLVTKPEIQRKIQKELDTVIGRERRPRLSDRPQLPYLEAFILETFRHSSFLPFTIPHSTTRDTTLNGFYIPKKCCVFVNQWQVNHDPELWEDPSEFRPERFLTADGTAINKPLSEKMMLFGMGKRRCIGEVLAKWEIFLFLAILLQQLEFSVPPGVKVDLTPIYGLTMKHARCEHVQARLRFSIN
# [4] = target: T2, Bromodomain-containing protein 4 (Homo sapiens, UniProt O60885); test: Inhibition of BRD4 in human MV4-11 cells assessed as up regulation of p21 expression measured after 6 to 24 hrs by Western blot analysis; assay type: cell-based
# [5] = AUC (0 to t) in Sprague-Dawley rat at 3 mg/kg, po by LC-MS/MS analysis; assay type: ADME, organism-based; settings: in vivo
# [6] = Half life in mouse liver microsomes at 0.1 uM preincubated for 10 mins followed by NADPH addition and measured up to 60 mins by LC-MS/MS analysis; assay type: ADME, Microsome
# [7] = target: Histone acetyltransferase p300 (Homo sapiens, UniProt Q09472); test: Inhibition of MSGRGK(Ac)-GGK(Ac)GLGK(Ac)GGAKRHR-biotin binding to EP300 (1040 to 1160 residues) (unknown origin) expressed in Escherichia coli BL21 (DE3) by Alphascreen assay
# Histone acetyltransferase p300, sequence (Q09472 whole entry, the tested form may be a part): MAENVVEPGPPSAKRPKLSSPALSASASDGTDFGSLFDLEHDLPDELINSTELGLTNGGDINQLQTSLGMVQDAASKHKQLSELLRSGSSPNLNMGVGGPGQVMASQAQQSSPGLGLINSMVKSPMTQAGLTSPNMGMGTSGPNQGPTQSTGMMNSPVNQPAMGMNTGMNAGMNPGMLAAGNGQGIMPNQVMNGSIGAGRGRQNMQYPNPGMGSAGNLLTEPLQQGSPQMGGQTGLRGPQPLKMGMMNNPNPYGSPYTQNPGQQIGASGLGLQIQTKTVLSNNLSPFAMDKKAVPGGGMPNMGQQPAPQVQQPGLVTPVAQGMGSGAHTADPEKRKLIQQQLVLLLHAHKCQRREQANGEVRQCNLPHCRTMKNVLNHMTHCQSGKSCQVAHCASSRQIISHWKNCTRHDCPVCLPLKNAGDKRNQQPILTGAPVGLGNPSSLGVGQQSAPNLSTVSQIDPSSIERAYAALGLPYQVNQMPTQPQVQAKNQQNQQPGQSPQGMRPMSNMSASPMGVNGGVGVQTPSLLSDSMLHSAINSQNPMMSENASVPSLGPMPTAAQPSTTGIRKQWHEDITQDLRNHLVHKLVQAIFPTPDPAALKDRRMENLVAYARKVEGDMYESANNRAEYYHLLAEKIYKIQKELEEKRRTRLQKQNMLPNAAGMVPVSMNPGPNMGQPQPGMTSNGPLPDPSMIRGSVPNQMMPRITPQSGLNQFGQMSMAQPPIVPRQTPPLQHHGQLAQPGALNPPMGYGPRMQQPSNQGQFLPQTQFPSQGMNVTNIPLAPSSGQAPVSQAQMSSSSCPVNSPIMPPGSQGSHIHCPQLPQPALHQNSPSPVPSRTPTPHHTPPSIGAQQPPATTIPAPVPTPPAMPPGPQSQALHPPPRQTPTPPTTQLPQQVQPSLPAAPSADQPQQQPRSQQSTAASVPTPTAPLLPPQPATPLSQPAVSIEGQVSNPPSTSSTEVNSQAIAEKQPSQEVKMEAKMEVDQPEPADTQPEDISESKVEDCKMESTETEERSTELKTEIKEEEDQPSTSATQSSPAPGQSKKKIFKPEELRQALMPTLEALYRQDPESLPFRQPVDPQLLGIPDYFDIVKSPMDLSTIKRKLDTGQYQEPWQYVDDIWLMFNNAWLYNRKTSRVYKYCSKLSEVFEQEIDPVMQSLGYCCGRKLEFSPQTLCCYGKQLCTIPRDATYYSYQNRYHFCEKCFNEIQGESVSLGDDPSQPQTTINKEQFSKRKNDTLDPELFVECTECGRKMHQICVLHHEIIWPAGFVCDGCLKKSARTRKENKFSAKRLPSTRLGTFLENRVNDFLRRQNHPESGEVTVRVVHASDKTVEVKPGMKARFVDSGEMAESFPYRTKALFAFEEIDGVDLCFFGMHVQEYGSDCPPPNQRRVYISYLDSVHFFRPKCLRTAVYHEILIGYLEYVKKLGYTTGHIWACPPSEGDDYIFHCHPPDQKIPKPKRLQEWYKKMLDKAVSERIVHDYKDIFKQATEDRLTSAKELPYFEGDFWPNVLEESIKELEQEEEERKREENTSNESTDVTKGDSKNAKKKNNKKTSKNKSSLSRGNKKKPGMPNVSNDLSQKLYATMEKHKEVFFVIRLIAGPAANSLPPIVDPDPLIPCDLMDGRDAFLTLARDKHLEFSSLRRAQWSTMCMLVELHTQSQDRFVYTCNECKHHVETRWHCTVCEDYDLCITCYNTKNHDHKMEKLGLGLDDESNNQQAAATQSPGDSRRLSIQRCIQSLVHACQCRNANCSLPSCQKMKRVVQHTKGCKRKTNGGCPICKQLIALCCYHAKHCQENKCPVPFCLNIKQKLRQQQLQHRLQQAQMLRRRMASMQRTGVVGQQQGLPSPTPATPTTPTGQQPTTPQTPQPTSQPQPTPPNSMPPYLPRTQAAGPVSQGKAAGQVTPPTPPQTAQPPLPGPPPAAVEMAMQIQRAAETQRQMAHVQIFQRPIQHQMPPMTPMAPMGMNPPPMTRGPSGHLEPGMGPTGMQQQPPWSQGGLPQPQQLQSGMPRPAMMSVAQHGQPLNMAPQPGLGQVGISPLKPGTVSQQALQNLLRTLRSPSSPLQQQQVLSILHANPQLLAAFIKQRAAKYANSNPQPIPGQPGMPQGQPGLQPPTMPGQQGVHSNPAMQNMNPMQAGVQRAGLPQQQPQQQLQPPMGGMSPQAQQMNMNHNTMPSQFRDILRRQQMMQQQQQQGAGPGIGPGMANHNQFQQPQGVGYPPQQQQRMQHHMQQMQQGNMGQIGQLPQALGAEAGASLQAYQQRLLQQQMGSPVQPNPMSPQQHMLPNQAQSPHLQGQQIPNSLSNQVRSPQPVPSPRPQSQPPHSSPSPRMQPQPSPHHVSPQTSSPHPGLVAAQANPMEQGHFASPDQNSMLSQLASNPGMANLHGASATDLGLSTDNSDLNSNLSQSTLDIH
# Kasumi 1 = test: Antiproliferative activity against human Kasumi-1 cells assessed as reduction in cell viability measured after 72 hrs by Celltitre-glo luminescence assay; assay type: functional, cell-based; settings: Kasumi 1, 72 h
# [8] = Toxicity in human MV4-11 cells xenografted mouse assessed as change in body weight at 6.25 to 12.5 mg/kg, po administered for 28 days and measured every 2 to 3 days during compound dosing; assay type: organism-based; settings: in vivo
# RS4-11 = test: Antiproliferative activity against human RS4:11 cells assessed as reduction in cell viability measured after 72 hrs by Celltitre-glo luminescence assay; assay type: functional, cell-based; settings: RS4-11, 72 h
# [9] = Volume of distribution at steady state in Sprague-Dawley rat at 1 mg/kg, iv by LC-MS/MS analysis; assay type: ADME, organism-based; settings: in vivo, read-out: Vdss
# [10] = Clearance in mouse at 3 mg/kg, iv by LC-MS/MS analysis; assay type: ADME, organism-based; settings: in vivo
# [11] = Clearance in monkey liver microsomes at 0.1 uM preincubated for 10 mins followed by NADPH addition and measured up to 60 mins by LC-MS/MS analysis; assay type: ADME, Macaca mulatta, Microsome; settings: rhesus monkey, 1 h
# MV4-11 [12] = test: Cell cycle arrest in human MV4-11 cells assessed as increase in accumulation at G1-phase at 31.25 nM measured after 24 hrs by propidium iodide staining based flow cytometry; assay type: functional
# [13] = AUC (0 to t) in Sprague-Dawley rat at 1 mg/kg, iv by LC-MS/MS analysis; assay type: ADME, organism-based; settings: in vivo
# [14] = Oral bioavailability in Sprague-Dawley rat at 3 mg/kg by LC-MS/MS analysis; assay type: ADME, organism-based; settings: in vivo
# [15] = Oral bioavailability in mouse at 3 mg/kg by LC-MS/MS analysis; assay type: ADME, organism-based; settings: in vivo
# [16] = target: Bromodomain-containing protein 2 (Homo sapiens, UniProt P25440); test: Binding affinity to human partial length BRD2 BD2 isoform 1 (E348 to D455 residues) expressed in bacterial expression system by bromoscan assay
# Bromodomain-containing protein 2, sequence (P25440 whole entry, the tested form may be a part, canonical isoform): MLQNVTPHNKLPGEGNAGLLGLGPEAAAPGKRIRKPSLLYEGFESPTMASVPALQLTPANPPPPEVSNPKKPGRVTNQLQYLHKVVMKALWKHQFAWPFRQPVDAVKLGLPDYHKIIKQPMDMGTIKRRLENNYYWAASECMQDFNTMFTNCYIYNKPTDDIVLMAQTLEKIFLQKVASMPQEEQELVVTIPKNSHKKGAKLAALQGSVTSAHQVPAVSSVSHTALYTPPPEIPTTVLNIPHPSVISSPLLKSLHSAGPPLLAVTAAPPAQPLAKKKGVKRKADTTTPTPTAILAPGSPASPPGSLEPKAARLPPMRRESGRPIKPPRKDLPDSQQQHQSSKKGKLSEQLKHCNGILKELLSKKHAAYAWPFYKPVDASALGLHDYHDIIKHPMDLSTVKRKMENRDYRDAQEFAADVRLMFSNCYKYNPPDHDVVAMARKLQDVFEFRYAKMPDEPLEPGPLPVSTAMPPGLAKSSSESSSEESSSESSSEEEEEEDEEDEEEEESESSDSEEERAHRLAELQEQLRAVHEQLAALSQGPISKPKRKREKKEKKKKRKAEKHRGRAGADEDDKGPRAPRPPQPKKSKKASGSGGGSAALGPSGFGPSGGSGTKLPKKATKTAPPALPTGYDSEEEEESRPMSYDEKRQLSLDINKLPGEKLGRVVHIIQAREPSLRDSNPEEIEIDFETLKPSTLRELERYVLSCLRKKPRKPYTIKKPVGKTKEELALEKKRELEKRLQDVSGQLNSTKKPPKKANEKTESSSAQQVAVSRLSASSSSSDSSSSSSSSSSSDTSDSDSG
# [17] = Half life in dog liver microsomes at 0.1 uM preincubated for 10 mins followed by NADPH addition and measured up to 60 mins by LC-MS/MS analysis; assay type: ADME, Canis lupus familiaris, Microsome
# [18] = Half life in mouse at 3 mg/kg, iv by LC-MS/MS analysis; assay type: ADME, organism-based; settings: in vivo
# [19] = target: T2, Bromodomain-containing protein 4
# Description: Binding affinity to N-terminal His6-tagged BRD4 bromodomain 1 (49 to 170 residues) (unknown origin) expressed in Escherichia coli BL21 (DE3) assessed as change in melting temperature at 1:100 molar ratio by SYPRO orange dye based fluorescence thermal shift assay
# [20] = Half life in human liver microsomes at 0.1 uM preincubated for 10 mins followed by NADPH addition and measured up to 60 mins by LC-MS/MS analysis; assay type: ADME, Microsome
# MV4-11 [21] = test: Antitumor activity against human MV4-11 cells xenografted in mouse assessed as tumor growth inhibition at 6.25 mg/kg, po administered for 28 days and measured every 2 to 3 days during compound dosing relative to control; assay type: functional; settings: MV4-11, po, read-out: TGI
# Cytochrome P450 2C9 = Cytochrome P450 2C9 (Homo sapiens, UniProt P11712); test: Inhibition of CYP2C9 in human liver microsomes using tolbutamide as substrate preincubated for 10 mins followed by NADPH addition and measured after 15 mins by LC-MS/MS analysis; assay type: ADME
# [22] = target: Bromodomain-containing protein 3 (Homo sapiens, UniProt Q15059); test: Binding affinity to human partial length BRD3 BD2 (G306 to P416 residues) expressed in bacterial expression system by bromoscan assay
# Bromodomain-containing protein 3, sequence (Q15059 whole entry, the tested form may be a part): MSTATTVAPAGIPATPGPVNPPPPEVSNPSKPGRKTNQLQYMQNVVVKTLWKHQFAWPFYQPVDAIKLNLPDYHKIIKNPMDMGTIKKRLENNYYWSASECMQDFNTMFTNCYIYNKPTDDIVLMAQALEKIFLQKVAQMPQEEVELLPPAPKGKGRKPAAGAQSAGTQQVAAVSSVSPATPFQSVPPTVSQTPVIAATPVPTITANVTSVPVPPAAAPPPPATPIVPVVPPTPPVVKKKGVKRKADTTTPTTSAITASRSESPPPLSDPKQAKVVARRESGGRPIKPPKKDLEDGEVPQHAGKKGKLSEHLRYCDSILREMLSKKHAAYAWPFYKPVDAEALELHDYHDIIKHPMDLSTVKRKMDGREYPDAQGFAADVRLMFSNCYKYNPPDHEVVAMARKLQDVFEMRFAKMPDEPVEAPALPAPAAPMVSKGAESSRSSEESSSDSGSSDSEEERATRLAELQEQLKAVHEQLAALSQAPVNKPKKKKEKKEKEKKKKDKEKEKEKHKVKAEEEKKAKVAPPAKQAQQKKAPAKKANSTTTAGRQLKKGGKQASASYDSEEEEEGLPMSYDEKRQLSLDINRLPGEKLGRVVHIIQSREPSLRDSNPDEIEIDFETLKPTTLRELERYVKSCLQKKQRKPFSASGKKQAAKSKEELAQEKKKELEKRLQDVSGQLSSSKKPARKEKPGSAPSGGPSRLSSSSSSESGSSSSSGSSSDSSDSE
# [23] = Volume of distribution at steady state in mouse at 3 mg/kg, iv by LC-MS/MS analysis; assay type: ADME, organism-based; settings: in vivo, read-out: Vdss
# MV4-11 [24] = test: Antitumor activity against human MV4-11 cells xenografted in mouse assessed as tumor growth inhibition at 12.5 mg/kg, po administered for 28 days and measured every 2 to 3 days during compound dosing relative to control; assay type: functional; settings: MV4-11, po, read-out: TGI
# [25] = AUC (0 to t) in mouse at 3 mg/kg, iv by LC-MS/MS analysis; assay type: ADME, organism-based; settings: in vivo
# Cytochrome P450 2C19 = Cytochrome P450 2C19 (Homo sapiens, UniProt P33261); test: Inhibition of CYP2C19 in human liver microsomes using S-mephenytoin as substrate preincubated for 10 mins followed by NADPH addition and measured after 15 mins by LC-MS/MS analysis; assay type: ADME
# Cytochrome P450 2C19, sequence (P33261 whole entry): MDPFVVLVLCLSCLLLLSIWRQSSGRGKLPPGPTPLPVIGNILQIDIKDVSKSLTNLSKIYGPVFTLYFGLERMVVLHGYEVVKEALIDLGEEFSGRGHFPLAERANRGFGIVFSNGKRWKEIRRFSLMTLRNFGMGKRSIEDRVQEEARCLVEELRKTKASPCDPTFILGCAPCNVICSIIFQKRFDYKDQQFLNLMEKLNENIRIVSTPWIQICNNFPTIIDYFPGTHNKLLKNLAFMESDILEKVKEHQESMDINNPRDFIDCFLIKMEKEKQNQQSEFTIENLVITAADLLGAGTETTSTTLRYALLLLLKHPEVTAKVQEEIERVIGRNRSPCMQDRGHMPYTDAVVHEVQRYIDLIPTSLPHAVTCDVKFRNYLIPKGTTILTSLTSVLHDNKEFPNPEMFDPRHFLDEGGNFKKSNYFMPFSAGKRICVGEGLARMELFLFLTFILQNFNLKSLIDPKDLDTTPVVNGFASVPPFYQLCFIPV
structure (smiles),measurement,setting,value
CCS(=O)(=O)Cc1cnc(Oc2ccc(F)cc2F)c(-c2cc(C)c3c(=O)[nH]ccn23)c1,IC50,MV4-11 [1],2.4 nM
same,IC50,Cytochrome P450 3A4,> 20000 nM
same,Cmax,[2],159 ng/mL
same,Microsomal intrinsic clearance,[3],12.2 mL/min/g
same,IC50,Cytochrome P450 1A2,> 20000 nM
same,inhibition,[4],Dose-dependent effect
same,AUC(0-t),[5],884 ng·h/mL
same,half-life at 0.1 µM,[6],1.38 h
same,IC50,[7],3860 nM
same,IC50,Kasumi 1,7.4 nM
same,Activity,[8],Non-Toxic
same,IC50,RS4-11,22.1 nM
same,Vd,[9],1.46 L/kg
same,clearance,[10],15.3 mL/min/kg
same,CLH,[11],42.7 mL/min/g
same,Activity,MV4-11 [12],Active
same,AUC(0-t),[13],848 ng·h/mL
same,bioavailability,[14],34.7%
same,bioavailability,[15],52.3%
same,Kd,[16],1.3 nM
same,half-life at 0.1 µM,[17],1.39 h
same,half-life,[18],0.9 h
same,ΔTm,[19],> 1 °C
same,half-life at 0.1 µM,[20],2.87 h
same,inhibition in vivo at 6.25 mg/kg,MV4-11 [21],76.4%
same,IC50,Cytochrome P450 2C9,> 20000 nM
same,Kd,[22],1 nM
same,Vd,[23],0.782 L/kg
same,inhibition in vivo at 12.5 mg/kg,MV4-11 [24],99.7%
same,AUC(0-t),[25],3270 ng·h/mL
same,IC50,Cytochrome P450 2C19,> 20000 nM
